Results reported in publication PMC8840742 (Molecules, 2022).
Where two headings read alike, the source gives them in different places.

Columns and labels:
[1] = system: SARS-CoV-2; conditions: for SI (CC50/EC50) / anti-SARS-CoV-2 activity in words: VeroE6 cells; for anti-SARS-CoV-2 activity in words: SAR discussion; for potency loss / fold less active relative to compound 8 (SARS-CoV-2): relative to compound 8, VeroE6
[2] = system: VeroE6 cells; test: Cytotoxicity in mock-infected VeroE6 cells (MTS assay); conditions: read-out: MTS CC50; mock-infected VeroE6 cells, MTS assay
[3] = biological target: SARS-CoV-2 nsp14 (N7-methyltransferase activity) (Severe acute respiratory syndrome coronavirus 2, UniProt P0DTD1); test: Nsp14 RapidFire MS assay; format: biochemical; conditions: highest tested concentration of 100 µM
[4] = biological target: SARS-CoV-2 replication–transcription complex (Severe acute respiratory syndrome coronavirus 2, UniProt P0DTD1); test: SARS-CoV-2 polymerase assay; format: biochemical; conditions: highest tested concentration of 100 µM
[5] = system: SARS-CoV-2 spike pseudotyped VSV; test: organism not typed; format: cell-based; conditions: Vero C1008, 24 h, read-out: SARS-CoV-2 pseudovirus neutralization EC50 (block of virus entry)
[6] = in vitro; conditions: human
[7] = system: SARS-CoV-1; test: microbe, parasite or virus in culture; format: cell-based; conditions: Severe acute respiratory syndrome coronavirus, Vero C1008, read-out: SARS-CoV-1 EC50
[8] = system: MERS-CoV; test: microbe, parasite or virus in culture; format: cell-based; conditions: Middle East respiratory syndrome-related coronavirus, Huh-7, 42 h, read-out: MERS EC50
[9] = biological target: cathepsin B (Homo sapiens, UniProt P07858); test: Cathepsin B inhibition; format: biochemical; conditions: human protease involved in SARS-CoV-2 entry
[10] = biological target: SARS-CoV-2 Mpro (Severe acute respiratory syndrome coronavirus 2, UniProt P0DTD1); test: SARS-CoV-2 main protease (Mpro) FRET assay; format: biochemical; conditions: highest tested concentration of 100 µM
Description: Compounds were tested in a Förster resonance energy transfer (FRET) assay for inhibition of the SARS-CoV-2 Mpro. The peptide Dabcyl-KTSAVLQ↓SGFRKM-E(Edans)-NH2 (Biosyntan, Berlin, Germany) (↓ indicates the cleavage site), corresponding to the P7–P6′ residues of the nsp4–nsp5 processing site of the viral polyprotein pp1a/pp1ab, was used as the substrate. Quenching of the Edans fluorescence by the Dabcyl residue was eliminated after cleavage of the scissile bond between P1-Gln and P1′-Ser and the difference in fluorescence emission was measured with a Tecan Spark fluorescence plate reader, operated at an excitation wavelength of 360 nm and an emission wavelength of 460 nm.
Candidate compounds were kept in a DMSO stock solution; the Mpro was in a buffer containing 20 mM HEPES, 120 mM NaCl, 0.4 mM EDTA, 20% glycerol, pH 7.0. DTT (4 mM) was added to the buffer prior to running the assay. Following incubation of 50 nM SARS-CoV-2 Mpro with 100 µM of the candidate compound for 10 min at 37 °C, the reaction was initiated by the addition of 10 µM of the FRET substrate to each well. The final DMSO concentration was <2%.

[11] = biological target: cathepsin L (Homo sapiens, UniProt P07711); test: Cathepsin L inhibition; format: biochemical; conditions: human protease involved in SARS-CoV-2 entry
Sequence of cathepsin L (P07711 114-333): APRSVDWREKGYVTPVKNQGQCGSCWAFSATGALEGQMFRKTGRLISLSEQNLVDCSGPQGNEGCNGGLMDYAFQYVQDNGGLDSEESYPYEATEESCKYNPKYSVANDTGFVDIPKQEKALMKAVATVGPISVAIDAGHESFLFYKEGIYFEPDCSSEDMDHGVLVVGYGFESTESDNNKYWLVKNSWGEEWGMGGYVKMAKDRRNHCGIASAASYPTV

[12] = system: Chikungunya virus; test: Chikungunya virus antiviral assay in Vero A cells; conditions: read-out: Chikungunya virus EC50
[13] = system: SARS-CoV-2; test: microbe, parasite or virus in culture; conditions: Severe acute respiratory syndrome coronavirus 2, 96 h, read-out: SARS-CoV-2 EC50
[14] = system: MERS-CoV spike pseudotyped VSV; test: organism not typed; format: cell-based; conditions: Vero C1008, 24 h, read-out: MERS pseudovirus neutralization EC50 (block of virus entry)
[15] = in vitro; conditions: African green monkey
[16] = Cytotoxicity in mock-infected VeroE6 cells (MTS assay); conditions: African green monkey

| Compound | SI (CC50/EC50) [1] | EC50 [13] [µM] | CC50 [15] [µM] | further results |
| --- | --- | --- | --- | --- |
| 5-[2-(1-Cyclopentylpyrrolidin-3-yl)oxyphenyl]-3-(4-pyridyl)-1,2,4-thiadiazole [Compound 49] | 2.6 | – | – | EC50 ([1]; read-out: SARS-CoV-2 EC50): 5.4 ± 2.1 µM; CC50 [2]: 14 ± 1 µM |
| c1ccc(CCN2CCC(Oc3ccccc3-c3nc(-c4ccncc4)no3)C2)cc1 (stereo not drawn) [Compound 1, 5-(2-((1-Phenethylpyrrolidin-3-yl)oxy)phenyl)-3-(pyridin-4-yl)-1,2,4-oxadiazole] | 4.5 | 4.7 ± 3 | 21 ± 11 | inhibitory activity on SARS-CoV-2 nsp14 (N7-methyltransferase activity) [3]: did not show any inhibitory activity; inhibitory activity on SARS-CoV-2 replication–transcription complex [4]: did not show any inhibitory activity; EC50 [5]: 1.25 µM; CC50 [6]: > 20 µM; EC50 [7]: 4.2 ± 0.2 µM; EC50 [8]: 5 µM; activity against cathepsin B [9]: inactive; inhibitory activity on SARS-CoV-2 Mpro [10]: did not show any inhibitory activity; activity against cathepsin L [11]: inactive; EC50 [12]: > 100 µM; EC50 [14]: 3.4 µM |
| c1ccc(CCN2CC[C@@H](Oc3ccccc3-c3nc(-c4ccncc4)no3)C2)cc1 [Compound 1a, 5-[2-[(3R)-1-(2-Phenylethyl)pyrrolidin-3-yl]oxyphenyl]-3-(4-pyridyl)-1,2,4-oxadiazole] | 8.1 | 3.6 ± 1.8 | 29 ± 24 | – |
| c1ccc(CCN2CC[C@H](Oc3ccccc3-c3nc(-c4ccncc4)no3)C2)cc1 [Compound 1b, 5-[2-[(3S)-1-(2-Phenylethyl)pyrrolidin-3-yl]oxyphenyl]-3-(4-pyridyl)-1,2,4-oxadiazole] | 12.8 | 1.4 ± 0.1 | 18 ± 11 | – |
| c1ccc(-c2nc(-c3ccncc3)no2)c(OC2CCN(C3CCCC3)C2)c1 (stereo not drawn) [Compound 8, 5-[2-(1-Cyclopentylpyrrolidin-3-yl)oxyphenyl]-3-(4-pyridyl)-1,2,4-oxadiazole] | 7.6 | 5.4 ± 3.5 | 41 ± 25 | – |
| c1ccc(-c2nc(-c3ccncc3)no2)c(OC2CCN(CC3CCCC3)C2)c1 (stereo not drawn) [Compound 9, 5-[2-[1-(Cyclopentylmethyl)pyrrolidin-3-yl]oxyphenyl]-3-(4-pyridyl)-1,2,4-oxadiazole] | 15 | 1.6 ± 0.8 | 24 ± 8 | – |
| c1ccc(-c2nc(-c3ccncc3)no2)c(OCC2CCN(C3CCCC3)C2)c1 (stereo not drawn) [Compound 10, 5-[2-[(1-Cyclopentylpyrrolidin-3-yl)methoxy]phenyl]-3-(4-pyridyl)-1,2,4-oxadiazole] | 15.9 | 1.7 ± 0.3 | 27 ± 6 | – |
| c1ccc(-c2nc(-c3ccncc3)no2)c(OCC2CCN(CC3CCCC3)C2)c1 (stereo not drawn) [Compound 11, 5-[2-[[1-(Cyclopentylmethyl)pyrrolidin-3-yl]methoxy]phenyl]-3-(4-pyridyl)-1,2,4-oxadiazole] | – | 40 ± 14 | > 50 | fold less active than compound 10 (SARS-CoV-2) ([1]; relative to compound 10, VeroE6): 20 fold |
| c1ccc(-c2nc(-c3ccncc3)no2)c(OC2CCN(C3CCCC3)CC2)c1 [Compound 12, 5-[2-[(1-Cyclopentyl-4-piperidyl)oxy]phenyl]-3-(4-pyridyl)-1,2,4-oxadiazole] | 27.1 | 1.7 ± 0.5 | 46 ± 18 | – |
| c1ccc(-c2nc(-c3ccncc3)no2)c(OCCNC2CCCC2)c1 [Compound 13, N-[2-[2-[3-(4-Pyridyl)-1,2,4-oxadiazol-5-yl]phenoxy]ethyl]cyclopentanamine] | 5.5 | 8.4 ± 2.5 | 46 ± 13 | – |
| CN(CCOc1ccccc1-c1nc(-c2ccncc2)no1)C1CCCC1 [Compound 14, N-Methyl-N-[2-[2-[3-(4-pyridyl)-1,2,4-oxadiazol-5-yl]phenoxy]ethyl]cyclopentanamine] | 4.4 | 8.5 ± 4 | 37 ± 11 | – |
| c1cncc(-c2noc(-c3ccccc3OC3CCN(C4CCCC4)C3)n2)c1 (stereo not drawn) [Compound 23, 5-[2-(1-Cyclopentylpyrrolidin-3-yl)oxyphenyl]-3-(3-pyridyl)-1,2,4-oxadiazole] | >6 | 8.4 ± 5.7 | > 50 | anti-SARS-CoV-2 activity in words [1]: equipotent to 8 |
| c1ccc(-c2nc(-c3cncnc3)no2)c(OC2CCN(C3CCCC3)C2)c1 (stereo not drawn) [Compound 24, 5-[2-(1-Cyclopentylpyrrolidin-3-yl)oxyphenyl]-3-pyrimidin-5-yl-1,2,4-oxadiazole] | >3.3 | 15 ± 2 | > 50 | potency loss / fold less active relative to compound 8 (SARS-CoV-2) [1]: 3 fold |
| c1ccc(-c2nc(-c3ccnnc3)no2)c(OC2CCN(C3CCCC3)C2)c1 (stereo not drawn) [Compound 25, 5-[2-(1-Cyclopentylpyrrolidin-3-yl)oxyphenyl]-3-pyridazin-4-yl-1,2,4-oxadiazole] | – | > 50 | > 50 | potency loss / fold less active relative to compound 8 (SARS-CoV-2) [1]: more than 10 fold |
| c1ccc(-c2noc(-c3ccccc3OC3CCN(C4CCCC4)C3)n2)cc1 (stereo not drawn) [Compound 26, 5-[2-(1-Cyclopentylpyrrolidin-3-yl)oxyphenyl]-3-phenyl-1,2,4-oxadiazole] | <1 | > 50 | 9 ± 2.5 | anti-SARS-CoV-2 activity in words [1]: showed only cytotoxicity |
| COc1ccc(-c2noc(-c3ccccc3OC3CCN(C4CCCC4)C3)n2)cn1 (stereo not drawn) [Compound 27, 5-[2-(1-Cyclopentylpyrrolidin-3-yl)oxyphenyl]-3-(6-methoxy-3-pyridyl)-1,2,4-oxadiazole] | 4.9 | 4.1 ± 2.2 | 20 ± 5.5 | – |
| FC(F)(F)c1cncc(-c2noc(-c3ccccc3OC3CCN(C4CCCC4)C3)n2)c1 (stereo not drawn) [Compound 28, 5-[2-(1-Cyclopentylpyrrolidin-3-yl)oxyphenyl]-3-[5-(trifluoromethyl)-3-pyridyl]-1,2,4-oxadiazole] | 4.8 | 2.1 ± 0.1 | 10 ± 1 | – |
| FC(F)(F)c1ccncc1-c1noc(-c2ccccc2OC2CCN(C3CCCC3)C2)n1 (stereo not drawn) [Compound 29, 5-[2-(1-Cyclopentylpyrrolidin-3-yl)oxyphenyl]-3-[4-(trifluoromethyl)-3-pyridyl]-1,2,4-oxadiazole] | 8.4 | 3.1 ± 1.3 | 26 ± 7 | – |
| Cc1ccncc1-c1noc(-c2ccccc2OC2CCN(C3CCCC3)C2)n1 (stereo not drawn) [Compound 30, 5-[2-(1-Cyclopentylpyrrolidin-3-yl)oxyphenyl]-3-(4-methyl-3-pyridyl)-1,2,4-oxadiazole] | 33.6 | 1.4 ± 1 | 47 ± 1 | – |
| Cc1cnccc1-c1noc(-c2ccccc2OC2CCN(C3CCCC3)C2)n1 (stereo not drawn) [Compound 31, 5-[2-(1-Cyclopentylpyrrolidin-3-yl)oxyphenyl]-3-(3-methyl-4-pyridyl)-1,2,4-oxadiazole] | – | 1.8 ± 0.3 | 18 ± 9 | – |
| c1ccc(-c2noc(-c3ccncc3)n2)c(OC2CCN(C3CCCC3)C2)c1 (stereo not drawn) [Compound 35, 3-[2-(1-Cyclopentylpyrrolidin-3-yl)oxyphenyl]-5-(4-pyridyl)-1,2,4-oxadiazole] | 4.8 | 6.2 ± 2.7 | 30 ± 12 | – |
| c1ccc(-c2nnc(-c3ccncc3)o2)c(OC2CCN(C3CCCC3)C2)c1 (stereo not drawn) [Compound 38, 2-[2-(1-Cyclopentylpyrrolidin-3-yl)oxyphenyl]-5-(4-pyridyl)-1,3,4-oxadiazole] | 3.1 | 15 ± 3 | 47 ± 15 | potency loss / fold less active relative to compound 8 (SARS-CoV-2) [1]: 3 fold |
| c1ccc(-c2nc(-c3ccncc3)ns2)c(OC2CCN(C3CCCC3)C2)c1 (stereo not drawn) [Compound 46, 5-[2-(1-Cyclopentylpyrrolidin-3-yl)oxyphenyl]-3-(4-pyridyl)-1,2,4-thiadiazole] | 6.5 | 2.3 ± 0.4 | – | CC50 [16]: 15 ± 1 µM |
| N#C[C@@]1(c2ccc3c(N)ncnn23)O[C@H](CO)[C@@H](O)[C@H]1O [GS-441524, reference compound] | – | 0.82 | – | – |
